From publication PMC10298530, “Synthesis and Anticancer Activity of A-Ring-Modified Derivatives of Dihydrobetulin” (International Journal of Molecular Sciences, 2023)

Legend:
HCT116 = assay: MTT cell viability assay, HCT116; format: cell-based, human; details: Homo sapiens, HCT-116; Table S1, HCT116; read-out: IC50 (mean ± SD)
Source text: (§1) Blokhin National Medical Research Center of Oncology (the Ministry of Health of the Russian Federation, Moscow).

RD TE32 = assay: MTT cell viability assay, RD TE32; format: cell-based, human; details: Homo sapiens; Table S1, RD TE32; read-out: IC50 (mean ± SD)
Source text: as §1

A549 = assay: MTT cell viability assay, A549; format: cell-based, human; details: Homo sapiens; Table S1, A549; read-out: IC50 (mean ± SD)
Source text: as §1

HEK293 = assay: MTT cell viability assay, HEK293; format: cell-based; details: Homo sapiens; Table S1, HEK293; read-out: IC50 (mean ± SD)
Source text: as §1

PC-3 = assay: MTT cell viability assay, PC-3; format: cell-based, human; details: Homo sapiens; Table S1, PC-3; read-out: IC50 (mean ± SD)
Source text: as §1

HBL-100/Dox = assay: MTT cell viability assay, HBL-100/Dox; format: cell-based, human; details: Homo sapiens, HBL-100; read-out: IC50 (mean ± SD)
Procedure: (§2) The cells were cultured in a humidified CO2 incubator (model 460-CE; Thermo Fisher Scientific, Waltham, MA, USA) at +37 °C and 5% CO2.
(§3) The percentage of the viable cells was calculated according to the following equation: cell viability (%) = 100 × (mean absorbance in the treatment group/mean absorbance in the control group). The results were expressed pictorially using Prism 6.0 (GraphPad Software, Boston, MA, USA).

MS = assay: MTT cell viability assay, MS; format: cell-based, human; details: Homo sapiens; Table S1, MS; read-out: IC50 (mean ± SD);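 further: MS is a melanocyte cell line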
Source text: as §1

MCF-7 = assay: MTT cell viability assay, MCF-7; format: cell-based, human; details: Homo sapiens, MCF7; Table S1, MCF-7; read-out: IC50 (mean ± SD)
Source text: as §1

HEpG2 = assay: MTT cell viability assay, HEpG2; format: cell-based, human; details: Homo sapiens; Table S1, HEpG2; read-out: IC50 (mean ± SD)
Source text: as §1

HBL-100 = assay: MTT cell viability assay, HBL-100; format: cell-based, human; details: Homo sapiens; Table S1, HBL-100; read-out: IC50 (mean ± SD)
Procedure: as §2, §3

Row | Structure (SMILES) | IC50 (HCT116) | IC50 (RD TE32) | IC50 (A549) | IC50 (HEK293) | IC50 (PC-3) | IC50 (HBL-100/Dox) | melting point | IC50 (MS) | IC50 (MCF-7) | IC50 (HEpG2) | IC50 (HBL-100)
1 | CC(C)C1CC[C@]2(COC(=O)c3ccccc3)CC[C@]3(C)C(CCC4[C@@](C)(CCC#N)C(C(=O)C(Br)Br)CC[C@]43C)C12 (some centres unmarked) [compound 29, 28-Benzoyloxy-2-cyano-24,24-dibromo-4-oxo-3,4-seco-3,23-dinorlupane] | > 200 µM | 73.2 ± 5.24 µM | > 100 µM | > 100 µM | > 100 µM | > 200 µM | 107.7 °C | > 100 µM | 49 ± 5.33 µM | > 100 µM | > 100 µM
2 | COC(=O)[C@]12CCC(C(C)C)C1C1CCC3[C@@](C)(CCC#N)C(C(C)=O)CC[C@@]3(C)[C@]1(C)CC2 (some centres unmarked) [compound 21, 2-Cyano-4-oxo-3,4-seco-3,23-dinorlupan-28-oic acid methyl ester] | > 100 µM | > 100 µM | > 100 µM | > 100 µM | > 100 µM | > 200 µM | 177.2 °C | > 100 µM | 97.5 ± 4.21 µM | > 100 µM | > 100 µM
3 | CC(C)C1CC[C@]2(CO)CC[C@]3(C)C(CCC4[C@@]5(C)C[C@@H](C#N)C[C@H](O)C5CC[C@]43C)C12 (stereo partly drawn) [compound 18, 2-Cyano-4β,28-dihydroxy-3,4-seco-3,23-dinor-2,24-cyclolupane] | > 200 µM | > 200 µM | > 100 µM | > 100 µM | > 100 µM | > 200 µM | 205.7 °C | > 100 µM | > 100 µM | > 100 µM | > 100 µM
4 | C=C1C=C(C#N)C[C@@]2(C)C1CC[C@]1(C)C2CCC2C3C(C(C)C)CC[C@]3(C(=O)OC)CC[C@]21C (some centres unmarked) [compound 10, 2-Cyano-3,4-seco-3-nor-2,24-cyclolup-2(24),4(23)-dien-28-oic acid methyl ester] | > 200 µM | > 100 µM | > 100 µM | > 200 µM | > 100 µM | > 200 µM | 76.6 °C | > 100 µM | > 100 µM | > 100 µM | > 100 µM
5 | CC(C)C1CC[C@]2(COC(=O)c3ccccc3)CC[C@]3(C)C(CCC4[C@@](C)(CCC#N)C(C(=O)CBr)CC[C@]43C)C12 (some centres unmarked) [compound 28, 28-Benzoyloxy-24-bromo-2-cyano-4-oxo-3,4-seco-3,23-dinorlupane] | > 100 µM | > 100 µM | > 100 µM | > 100 µM | > 100 µM | > 200 µM | 91.6 °C | > 100 µM | 86.1 ± 10.1 µM | > 100 µM | > 100 µM
6 | CC(C)C1CC[C@]2(CO)CC[C@]3(C)C(CCC4[C@@]5(C)C[C@@H](C#N)CC(=O)C5CC[C@]43C)C12 (some centres unmarked) [compound 16, 2-Cyano-28-hydroxy-4-oxo-3,4-seco-3,23-dinor-2,24-cyclolupane] | > 200 µM | > 100 µM | > 100 µM | > 100 µM | > 100 µM | > 200 µM | 166.6 °C | > 100 µM | > 100 µM | > 100 µM | > 100 µM
7 | C=C(CBr)C1CC[C@]2(C)C(CCC3C4C(C(C)C)CC[C@]4(C(=O)OC)CC[C@]32C)[C@@]1(C)CCC#N (some centres unmarked) [compound 7, 24-Bromo-2-cyano-3,4-seco-3-norlup-4(23)-en-28-oic acid methyl ester] | > 200 µM | > 200 µM | > 100 µM | > 100 µM | > 100 µM | > 200 µM | 72.7 °C | > 100 µM | > 100 µM | > 100 µM | > 200 µM
8 | C=C1C2CC[C@]3(C)C(CCC4C5C(C(C)C)CC[C@]5(CO)CC[C@]43C)[C@@]2(C)C[C@@H](C#N)[C@@H]1O (stereo partly drawn) [compound 9, 2-Cyano-24β,28-dihydroxy-3,4-seco-3-nor-2,24-cyclolup-4(23)-ene] | > 100 µM | > 100 µM | > 100 µM | > 100 µM | > 100 µM | > 100 µM | 170.1 °C | > 100 µM | > 200 µM | > 100 µM | > 200 µM
9 | C=C(CBr)C1CC[C@]2(C)C(CCC3C4C(C(C)C)CC[C@]4(COC(=O)c4ccccc4)CC[C@]32C)[C@@]1(C)CCC#N (some centres unmarked) [compound 6, 28-Benzoyloxy-24-bromo-2-cyano-3,4-seco-3-norlup-4(23)-ene] | > 200 µM | > 200 µM | > 100 µM | > 200 µM | > 100 µM | > 200 µM | 87.9 °C | > 100 µM | > 200 µM | > 100 µM | > 100 µM
10 | C=C1C2CC[C@]3(C)C(CCC4C5C(C(C)C)CC[C@]5(C(=O)OC)CC[C@]43C)[C@@]2(C)C[C@@H](C#N)[C@@H]1O (stereo partly drawn) [compound 11, 2-Cyano-24β-hydroxy-3,4-seco-3-nor-2,24-cyclolup-4(23)-en-28-oic acid methyl ester] | > 200 µM | > 200 µM | > 100 µM | > 200 µM | > 100 µM | > 200 µM | 133.9 °C | > 100 µM | > 100 µM | > 100 µM | 73.3 ± 1.51 µM
11 | CC(=O)C1CC[C@]2(C)C(CCC3C4C(C(C)C)CC[C@]4(COC(=O)c4ccccc4)CC[C@]32C)[C@@]1(C)CCC#N (some centres unmarked) [compound 20, 28-Benzoyloxy-2-cyano-4-oxo-3,4-seco-3,23-dinorlupane] | > 100 µM | > 100 µM | > 100 µM | > 100 µM | > 100 µM | > 200 µM | 185.8 °C | > 100 µM | > 100 µM | > 100 µM | > 200 µM
12 | COC(=O)[C@]12CCC(C(C)C)C1C1CCC3[C@@]4(C)CC(C#N)=C(C)C4CC[C@@]3(C)[C@]1(C)CC2 (some centres unmarked) [compound 23, 2-Cyano-3,4-seco-3,23-dinor-2,4-cyclolup-2(4)-en-28-oic acid methyl ester] | > 100 µM | > 100 µM | > 200 µM | > 100 µM | > 200 µM | > 100 µM | 168.5 °C | > 100 µM | 70.2 ± 3.09 µM | > 200 µM | > 100 µM
13 | C=C(C=O)C1CC[C@]2(C)C(CCC3C4C(C(C)C)CC[C@]4(COC(=O)c4ccccc4)CC[C@]32C)[C@@]1(C)CCC#N (some centres unmarked) [compound 4, 28-Benzoyloxy-2-cyano-3,4-seco-3-norlup-4(23)-en-24-al] | > 200 µM | > 100 µM | > 100 µM | > 100 µM | > 100 µM | > 100 µM | 176.5 °C | > 100 µM | > 200 µM | > 100 µM | > 100 µM
